This is an account of results in ChEMBL document CHEMBL3991601, “The target landscape of clinical kinase drugs” (Science, 2017).

One assay concerns the target Deoxycytidine kinase (Homo sapiens, UniProt P27707).
Assay [1] deals with T1, Dual specificity mitogen-activated protein kinase kinase 6 (Homo sapiens, UniProt P52564).
T1 sequence (P52564 whole entry): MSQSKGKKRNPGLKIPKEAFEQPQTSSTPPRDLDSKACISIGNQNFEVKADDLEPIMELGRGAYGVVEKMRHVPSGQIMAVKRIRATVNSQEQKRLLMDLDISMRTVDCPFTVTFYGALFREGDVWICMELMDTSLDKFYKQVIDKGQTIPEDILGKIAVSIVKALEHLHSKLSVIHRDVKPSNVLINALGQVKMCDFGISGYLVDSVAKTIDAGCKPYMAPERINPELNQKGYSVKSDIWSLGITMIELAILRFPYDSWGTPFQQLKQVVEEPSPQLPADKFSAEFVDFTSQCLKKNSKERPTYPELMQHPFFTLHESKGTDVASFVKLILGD

Assay [2] deals with Macrophage-stimulating protein receptor (Homo sapiens, UniProt Q04912).
Assay [3] has as its target T2, Serine/threonine-protein kinase ICK (Homo sapiens, UniProt Q9UPZ9).
T2 sequence (Q9UPZ9 whole entry): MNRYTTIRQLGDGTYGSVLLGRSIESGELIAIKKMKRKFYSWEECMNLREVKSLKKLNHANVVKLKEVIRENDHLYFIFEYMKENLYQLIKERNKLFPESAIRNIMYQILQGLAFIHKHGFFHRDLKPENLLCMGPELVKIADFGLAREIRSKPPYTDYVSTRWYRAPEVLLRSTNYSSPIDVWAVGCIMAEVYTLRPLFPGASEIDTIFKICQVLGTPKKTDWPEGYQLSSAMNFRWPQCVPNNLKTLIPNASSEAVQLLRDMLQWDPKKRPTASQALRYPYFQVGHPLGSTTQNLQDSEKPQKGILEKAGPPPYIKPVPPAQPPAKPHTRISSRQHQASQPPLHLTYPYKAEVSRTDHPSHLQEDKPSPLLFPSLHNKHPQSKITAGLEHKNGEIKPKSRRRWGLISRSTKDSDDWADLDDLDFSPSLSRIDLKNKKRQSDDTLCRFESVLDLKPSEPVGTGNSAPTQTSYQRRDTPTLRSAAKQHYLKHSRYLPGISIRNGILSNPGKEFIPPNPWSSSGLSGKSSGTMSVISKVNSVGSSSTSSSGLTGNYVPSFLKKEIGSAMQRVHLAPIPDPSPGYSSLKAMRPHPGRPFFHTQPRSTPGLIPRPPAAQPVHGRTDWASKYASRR

For assay [4], the target named is Ribosomal protein S6 kinase alpha-6 (Homo sapiens, UniProt Q9UK32).
Assay [5] deals with Mitotic checkpoint serine/threonine-protein kinase BUB1 (Homo sapiens, UniProt O43683).
Assay [6] has as its target Cyclin-dependent kinase 3 (Homo sapiens, UniProt Q00526).
The target of assay [7] is T3, Uncharacterized protein FLJ45252 (Homo sapiens, UniProt Q6ZSR9).
T3 sequence (Q6ZSR9 whole entry): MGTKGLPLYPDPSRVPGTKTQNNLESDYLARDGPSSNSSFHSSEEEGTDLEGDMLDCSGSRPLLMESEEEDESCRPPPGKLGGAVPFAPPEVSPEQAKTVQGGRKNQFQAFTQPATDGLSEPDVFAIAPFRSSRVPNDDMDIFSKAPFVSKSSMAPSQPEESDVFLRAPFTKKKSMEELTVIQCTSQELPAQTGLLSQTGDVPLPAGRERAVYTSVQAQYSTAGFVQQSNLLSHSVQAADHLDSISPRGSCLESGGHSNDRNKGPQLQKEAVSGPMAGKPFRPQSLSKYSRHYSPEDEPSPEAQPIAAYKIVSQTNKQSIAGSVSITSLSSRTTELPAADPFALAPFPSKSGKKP
To be noted: read-out: Kd apparent; k-562, colo 205, sk-n-be(2) and mv-4-11.

Assay [8] deals with T4, cGMP-dependent protein kinase 1 (Homo sapiens, UniProt Q13976).
T4 sequence (Q13976 whole entry): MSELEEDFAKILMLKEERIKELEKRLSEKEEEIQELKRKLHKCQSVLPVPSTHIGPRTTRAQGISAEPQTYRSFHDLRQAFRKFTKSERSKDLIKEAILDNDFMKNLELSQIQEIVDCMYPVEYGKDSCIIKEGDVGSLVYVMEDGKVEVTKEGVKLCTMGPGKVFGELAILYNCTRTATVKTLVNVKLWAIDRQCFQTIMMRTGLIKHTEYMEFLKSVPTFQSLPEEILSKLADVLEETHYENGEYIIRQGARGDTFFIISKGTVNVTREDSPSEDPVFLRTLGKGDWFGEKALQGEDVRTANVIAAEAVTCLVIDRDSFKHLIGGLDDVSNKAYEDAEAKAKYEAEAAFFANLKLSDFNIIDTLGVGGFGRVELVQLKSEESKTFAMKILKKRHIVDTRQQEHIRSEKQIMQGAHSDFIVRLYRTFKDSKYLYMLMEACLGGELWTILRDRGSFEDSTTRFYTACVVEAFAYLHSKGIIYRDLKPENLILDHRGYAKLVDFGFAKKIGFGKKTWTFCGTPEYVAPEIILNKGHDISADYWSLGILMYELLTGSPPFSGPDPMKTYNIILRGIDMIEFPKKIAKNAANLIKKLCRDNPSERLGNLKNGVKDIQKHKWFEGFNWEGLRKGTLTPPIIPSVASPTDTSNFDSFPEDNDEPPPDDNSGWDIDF

In assay [9] the target is AP2-associated protein kinase 1 (Homo sapiens, UniProt Q2M2I8).
Assay [10] concerns the target T5, Interleukin-1 receptor-associated kinase 4 (Homo sapiens, UniProt Q9NWZ3).
T5 sequence (Q9NWZ3 whole entry): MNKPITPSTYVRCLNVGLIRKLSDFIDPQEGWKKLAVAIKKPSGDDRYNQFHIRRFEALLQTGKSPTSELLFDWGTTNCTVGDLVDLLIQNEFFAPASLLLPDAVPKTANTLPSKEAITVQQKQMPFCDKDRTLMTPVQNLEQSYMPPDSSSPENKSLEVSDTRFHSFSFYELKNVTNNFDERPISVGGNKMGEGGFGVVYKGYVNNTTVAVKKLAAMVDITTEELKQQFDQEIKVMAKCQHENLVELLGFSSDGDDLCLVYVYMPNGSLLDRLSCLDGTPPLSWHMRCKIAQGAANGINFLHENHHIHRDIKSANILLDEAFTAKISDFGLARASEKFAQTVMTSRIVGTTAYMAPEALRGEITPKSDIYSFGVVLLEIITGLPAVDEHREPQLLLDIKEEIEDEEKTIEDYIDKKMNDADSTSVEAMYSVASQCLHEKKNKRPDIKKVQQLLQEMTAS

Assay [11] addresses Casein kinase I isoform alpha (Homo sapiens, UniProt P48729).

Activity calls are given as the source filed them. Cut-off read from the data, not from the text of the source, for most assays here: actives have a measured Kd and inactives only a lower limit. Bounds are passed on as bounds.
Note: in the data inactive means no Kd found up to 30 µM.

Ribosomal protein S6 kinase alpha-6, sequence (Q9UK32 whole entry): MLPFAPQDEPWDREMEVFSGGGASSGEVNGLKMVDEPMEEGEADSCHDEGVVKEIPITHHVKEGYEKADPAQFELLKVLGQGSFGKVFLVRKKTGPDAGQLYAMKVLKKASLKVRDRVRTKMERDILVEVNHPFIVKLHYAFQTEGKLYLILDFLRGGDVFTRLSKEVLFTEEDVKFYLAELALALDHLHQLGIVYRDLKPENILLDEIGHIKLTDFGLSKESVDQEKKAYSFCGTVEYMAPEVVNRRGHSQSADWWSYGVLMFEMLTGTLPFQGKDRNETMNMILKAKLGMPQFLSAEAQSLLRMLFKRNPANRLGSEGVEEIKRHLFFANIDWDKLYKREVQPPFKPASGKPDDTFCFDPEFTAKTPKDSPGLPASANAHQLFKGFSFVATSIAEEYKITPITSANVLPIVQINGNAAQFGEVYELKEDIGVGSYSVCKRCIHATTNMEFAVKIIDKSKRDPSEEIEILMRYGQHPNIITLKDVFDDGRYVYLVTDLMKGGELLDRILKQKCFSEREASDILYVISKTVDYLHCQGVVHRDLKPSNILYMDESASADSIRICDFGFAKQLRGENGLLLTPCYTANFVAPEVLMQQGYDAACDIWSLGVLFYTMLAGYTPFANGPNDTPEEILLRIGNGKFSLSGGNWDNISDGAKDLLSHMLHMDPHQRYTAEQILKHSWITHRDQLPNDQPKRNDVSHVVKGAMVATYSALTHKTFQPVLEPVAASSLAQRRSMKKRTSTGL
Deoxycytidine kinase, sequence (P27707 whole entry): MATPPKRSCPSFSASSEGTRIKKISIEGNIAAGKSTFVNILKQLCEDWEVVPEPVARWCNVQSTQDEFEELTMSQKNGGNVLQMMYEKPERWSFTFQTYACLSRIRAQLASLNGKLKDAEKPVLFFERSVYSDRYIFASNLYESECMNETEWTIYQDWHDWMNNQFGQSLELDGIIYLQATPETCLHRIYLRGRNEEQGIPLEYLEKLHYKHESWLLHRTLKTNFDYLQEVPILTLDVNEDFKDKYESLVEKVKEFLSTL
Cyclin-dependent kinase 3, sequence (Q00526 whole entry): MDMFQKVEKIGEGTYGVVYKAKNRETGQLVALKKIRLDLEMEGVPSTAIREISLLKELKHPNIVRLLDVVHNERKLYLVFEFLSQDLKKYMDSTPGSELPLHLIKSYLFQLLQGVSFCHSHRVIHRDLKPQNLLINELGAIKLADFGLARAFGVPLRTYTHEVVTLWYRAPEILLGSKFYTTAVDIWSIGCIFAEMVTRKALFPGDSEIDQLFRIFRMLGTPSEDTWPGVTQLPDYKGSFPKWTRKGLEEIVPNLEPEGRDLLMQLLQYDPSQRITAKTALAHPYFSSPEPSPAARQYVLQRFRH
Macrophage-stimulating protein receptor, sequence (Q04912 25-304 limits assumed): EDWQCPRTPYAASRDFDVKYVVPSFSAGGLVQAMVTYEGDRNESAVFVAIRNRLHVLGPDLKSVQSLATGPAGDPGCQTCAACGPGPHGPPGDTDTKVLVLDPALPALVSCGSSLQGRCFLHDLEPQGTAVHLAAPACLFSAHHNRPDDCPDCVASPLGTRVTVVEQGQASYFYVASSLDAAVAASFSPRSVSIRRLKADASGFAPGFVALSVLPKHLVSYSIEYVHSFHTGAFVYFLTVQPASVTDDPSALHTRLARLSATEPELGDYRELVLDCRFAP
Macrophage-stimulating protein receptor, sequence (Q04912 310-1400 limits assumed): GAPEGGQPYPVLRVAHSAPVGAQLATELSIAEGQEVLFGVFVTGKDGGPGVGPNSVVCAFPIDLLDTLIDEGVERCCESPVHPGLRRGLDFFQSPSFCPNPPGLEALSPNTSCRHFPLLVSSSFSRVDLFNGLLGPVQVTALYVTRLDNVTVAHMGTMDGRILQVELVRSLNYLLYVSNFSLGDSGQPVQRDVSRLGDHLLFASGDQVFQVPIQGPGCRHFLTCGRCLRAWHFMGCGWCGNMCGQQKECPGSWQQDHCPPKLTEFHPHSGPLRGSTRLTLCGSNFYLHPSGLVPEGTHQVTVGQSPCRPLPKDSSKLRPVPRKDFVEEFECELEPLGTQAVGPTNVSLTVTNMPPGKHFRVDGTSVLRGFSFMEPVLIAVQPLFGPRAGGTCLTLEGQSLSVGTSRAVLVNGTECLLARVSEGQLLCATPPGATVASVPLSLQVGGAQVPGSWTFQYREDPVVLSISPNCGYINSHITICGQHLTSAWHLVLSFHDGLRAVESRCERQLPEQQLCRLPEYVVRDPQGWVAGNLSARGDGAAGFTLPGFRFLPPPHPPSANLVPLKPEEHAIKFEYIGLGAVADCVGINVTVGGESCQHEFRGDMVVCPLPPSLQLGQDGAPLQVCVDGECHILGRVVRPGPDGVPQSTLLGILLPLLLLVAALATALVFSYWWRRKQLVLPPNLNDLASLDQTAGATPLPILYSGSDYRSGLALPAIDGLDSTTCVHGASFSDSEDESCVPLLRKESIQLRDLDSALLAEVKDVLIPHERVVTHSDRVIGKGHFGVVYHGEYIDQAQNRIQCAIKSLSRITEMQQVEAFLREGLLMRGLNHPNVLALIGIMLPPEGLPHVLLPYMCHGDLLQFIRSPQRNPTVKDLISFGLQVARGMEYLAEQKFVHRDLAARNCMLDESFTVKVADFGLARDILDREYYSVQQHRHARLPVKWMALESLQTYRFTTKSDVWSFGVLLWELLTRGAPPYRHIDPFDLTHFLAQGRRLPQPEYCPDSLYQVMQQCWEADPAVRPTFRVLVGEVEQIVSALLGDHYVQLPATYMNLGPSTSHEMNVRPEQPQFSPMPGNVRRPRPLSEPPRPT
AP2-associated protein kinase 1, sequence (Q2M2I8 whole entry): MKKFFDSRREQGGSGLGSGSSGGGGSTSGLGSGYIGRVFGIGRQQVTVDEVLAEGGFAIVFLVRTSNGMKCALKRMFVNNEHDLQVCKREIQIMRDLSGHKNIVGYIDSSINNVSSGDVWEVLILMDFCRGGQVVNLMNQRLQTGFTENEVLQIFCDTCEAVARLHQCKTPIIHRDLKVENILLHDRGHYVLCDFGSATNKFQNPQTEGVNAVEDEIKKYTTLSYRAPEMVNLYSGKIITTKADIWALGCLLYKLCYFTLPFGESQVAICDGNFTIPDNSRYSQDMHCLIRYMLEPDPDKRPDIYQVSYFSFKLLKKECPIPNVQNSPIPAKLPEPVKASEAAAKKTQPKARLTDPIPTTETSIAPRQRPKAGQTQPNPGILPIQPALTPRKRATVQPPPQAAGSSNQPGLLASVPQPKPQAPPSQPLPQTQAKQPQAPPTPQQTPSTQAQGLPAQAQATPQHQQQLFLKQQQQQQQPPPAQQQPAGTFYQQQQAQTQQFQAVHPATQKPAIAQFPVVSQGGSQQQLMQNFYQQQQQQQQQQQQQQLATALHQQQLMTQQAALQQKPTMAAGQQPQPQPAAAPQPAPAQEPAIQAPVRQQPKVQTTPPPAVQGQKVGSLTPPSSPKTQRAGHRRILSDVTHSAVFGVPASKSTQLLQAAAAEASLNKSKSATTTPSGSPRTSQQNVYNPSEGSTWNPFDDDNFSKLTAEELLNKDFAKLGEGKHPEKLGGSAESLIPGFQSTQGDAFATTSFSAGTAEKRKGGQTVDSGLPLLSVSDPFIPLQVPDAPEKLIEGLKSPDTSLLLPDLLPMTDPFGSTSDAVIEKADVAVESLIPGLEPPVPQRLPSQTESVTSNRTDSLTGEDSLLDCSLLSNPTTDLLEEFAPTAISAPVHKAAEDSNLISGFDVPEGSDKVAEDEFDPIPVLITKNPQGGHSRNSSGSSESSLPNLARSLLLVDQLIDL
Mitotic checkpoint serine/threonine-protein kinase BUB1, sequence (O43683 whole entry): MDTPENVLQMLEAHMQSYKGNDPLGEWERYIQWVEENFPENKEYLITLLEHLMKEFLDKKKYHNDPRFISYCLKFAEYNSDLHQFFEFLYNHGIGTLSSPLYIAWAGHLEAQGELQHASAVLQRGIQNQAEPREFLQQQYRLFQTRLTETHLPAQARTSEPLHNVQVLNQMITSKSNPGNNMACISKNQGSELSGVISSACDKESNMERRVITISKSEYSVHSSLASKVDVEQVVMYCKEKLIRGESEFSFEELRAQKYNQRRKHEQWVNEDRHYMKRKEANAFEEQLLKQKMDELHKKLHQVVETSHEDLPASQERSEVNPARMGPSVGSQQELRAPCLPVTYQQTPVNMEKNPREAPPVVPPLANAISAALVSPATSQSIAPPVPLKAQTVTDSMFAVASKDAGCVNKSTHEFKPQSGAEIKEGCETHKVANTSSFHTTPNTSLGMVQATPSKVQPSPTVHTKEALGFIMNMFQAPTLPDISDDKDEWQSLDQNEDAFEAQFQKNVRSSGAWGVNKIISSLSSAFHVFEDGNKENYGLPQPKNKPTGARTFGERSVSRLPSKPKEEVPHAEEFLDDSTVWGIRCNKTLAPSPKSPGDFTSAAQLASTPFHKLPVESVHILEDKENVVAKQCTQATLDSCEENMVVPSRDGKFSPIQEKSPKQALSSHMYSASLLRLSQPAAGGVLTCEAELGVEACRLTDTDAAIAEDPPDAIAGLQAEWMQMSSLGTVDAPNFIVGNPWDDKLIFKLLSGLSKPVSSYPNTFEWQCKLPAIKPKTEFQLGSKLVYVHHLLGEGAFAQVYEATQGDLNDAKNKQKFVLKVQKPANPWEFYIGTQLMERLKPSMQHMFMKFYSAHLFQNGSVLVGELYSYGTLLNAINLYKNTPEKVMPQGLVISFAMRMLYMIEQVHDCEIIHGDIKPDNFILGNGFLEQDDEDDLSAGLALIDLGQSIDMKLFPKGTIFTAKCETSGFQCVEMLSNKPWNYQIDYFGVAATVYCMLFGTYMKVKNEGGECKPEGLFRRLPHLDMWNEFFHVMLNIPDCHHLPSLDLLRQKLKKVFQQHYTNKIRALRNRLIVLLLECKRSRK

As to `C#Cc1cccc(Nc2ncnc3cc4c(cc23)OCCOCCOCCO4)c1` [ICOTINIB], the Kd at Deoxycytidine kinase was > 30 µM (inactive); in [1] it was > 30 µM (inactive); in [2], > 30 µM (inactive); in assay [3], > 30 µM (inactive); in assay [4], > 30 µM (inactive); in [5], 2.91 µM (active). Moreover, the Kd in [6], in assay [7], in assay [8], in assay [9], in [10] and in assay [11] was > 30 µM (inactive) in each case.

Turning to `COc1cc(F)c(F)c(Nc2ccc(I)cc2F)c1NS(=O)(=O)C1(C[C@H](O)CO)CC1` [REFAMETINIB], the Kd (at Deoxycytidine kinase; in assay [1]; in assay [2]; in [3]; in assay [4]; in assay [5]) was > 30 µM (inactive) each time. Also, the Kd in assay [6], in assay [7], in assay [8], in assay [9], in assay [10] and in assay [11] was > 30 µM (inactive) in each case.

Regarding `O[C@H]1CC[C@H](Nc2ncc3nc(Nc4c(F)cc(F)cc4F)n([C@H]4CCOC4)c3n2)CC1` [TANZISERTIB], the Kd (at Deoxycytidine kinase; in assay [1]; in assay [2]; in assay [3]; in assay [4]; in assay [5]) was > 30 µM (inactive) in each case. For the same compound, the Kd in assay [6], in assay [7], in [8], in assay [9], in [10] and in [11] was > 30 µM (inactive) in each case.

With `CNC(=O)c1cc(COc2nnc(Nc3ccc(Cl)cc3)c3ccoc23)ccn1` [TELATINIB], the Kd (on Deoxycytidine kinase; in assay [1]; in assay [2]; in [3]; in [4]; in assay [5]) was > 30 µM (inactive) throughout. Moreover, the Kd in assay [6], in [7], in assay [8], in assay [9], in [10] and in assay [11] was > 30 µM (inactive) throughout.

For `COc1cc2ncnc3c2cc1OCCCCCN(C)Cc1ccc(Br)cc1N3` [JNJ-26483327], the Kd (at Deoxycytidine kinase; in assay [1]; in assay [2]; in assay [3]; in assay [4]; in assay [5]) was > 30 µM (inactive) each time. Besides, the Kd in assay [6], in assay [7], in assay [8], in assay [9], in assay [10] and in assay [11] was > 30 µM (inactive) throughout.

As for `CNC(=O)c1cccc(-c2ccc3c(N4CCOC[C@@H]4C)nc(N4CCOC[C@@H]4C)nc3n2)c1` [VISTUSERTIB], the Kd (at Deoxycytidine kinase; in [1]; in [2]; in [3]; in assay [4]; in assay [5]) was > 30 µM (inactive) in each case. Besides, the Kd in assay [6], in assay [7], in assay [8], in [9], in assay [10] and in assay [11] was > 30 µM (inactive) each time.

`NC(=O)c1ccc(N(C(N)=O)c2c(F)cccc2F)nc1-c1ccc(F)cc1F` [VX-702]: the Kd (at Deoxycytidine kinase; in [1]; in assay [2]; in assay [3]; in assay [4]; in assay [5]) was > 30 µM (inactive) throughout. For the same compound, the Kd in [6], in assay [7], in [8], in assay [9], in [10] and in [11] was > 30 µM (inactive) throughout.

Turning to `Cc1cc(-c2cc(OC(=O)c3ccccc3)ccc2Cl)cc2nnc(Nc3ccc(OCCN4CCCC4)cc3)nc12` [TG100-801], the Kd (at Deoxycytidine kinase; in assay [1]; in assay [2]; in assay [3]; in [4]; in assay [5]) was > 30 µM (inactive) in each case. Further, the Kd in assay [6], in assay [7], in assay [8], in assay [9], in [10] and in assay [11] was > 30 µM (inactive) each time.

On to `O=C(Nc1ccc(OC(F)(F)F)cc1)c1sccc1NCc1ccnc2ccccc12` [OSI-930], for which the Kd (at Deoxycytidine kinase; in assay [1]; in assay [2]; in [3]; in [4]; in assay [5]) was > 30 µM (inactive) each time. The Kd in [6], in [7], in assay [8], in assay [9], in [10] and in assay [11] was > 30 µM (inactive) each time.
